Laboratory results: patent US20060275285A1, “Methods of inhibiting a GPCR” (Amgen Inc., priority 2005, published 2006)

Tests used:
[1] = tested on: GPR23 mRNA; test: GPR23 mRNA quantitation by real time PCR in white adipose tissue of diet induced obese mice; format: in vivo; conditions: Groups 3 and 4 (25 and 50 mg/kg IP weekly for 7 weeks) vs Group 2
Description: (§1) GPR23-specific antisense oligos were generated by Isis Pharmaceuticals (Carlsbad, Calif.) and were evaluated for activity in bEND (murine brain endothelial) cells. […] An oligo without homology to any known gene was provided as a control ([…] (SEQ ID NO:10)). For the studies, male C57 black 6 mice were fed a high fat diet for 12 weeks (from 3 weeks of age) and analyzed for parameters of diet induced obesity. Animals that show appropriate symptoms of diet induced obesity (e.g., hyperinsulemia and weight gain with no signs of illness) were divided into 5 groups (10 animals/group) and treated as described below:
(§2) Group 1 (saline treated control): saline IP injection weekly for 7 weeks;
(§3) Group 2 (universal oligo control): oligo IP injection 50 mg/kg body weight, weekly for 7 weeks;
(§4) Group 3 (GPR23 antisense oligo (ASO) treated): oligo IP injection, 25 mg/kg body weight, weekly for 7 weeks;
(§5) Group 4 (GPR23 ASO treated): oligo IP injection, 50 mg/kg body weight, weekly for 7 weeks; and
(§6) Group 5: (rosiglitizone treated control): 50 mg/kg body weight for 7 weeks.
Fed glucose measurements were made at the beginning, midpoint and endpoint of the study. […] At the end of the study, animals were sacrificed and tissue samples (liver, white adipose tissue, brown adipose tissue) were taken for histological evaluation and GPR23 mRNA quantitation. […]

[2] = tested on: fatty acid synthase mRNA; test: Gene profiling by real time PCR of adipose tissue: fatty acid synthase; format: in vivo, mice; conditions: white adipose tissue; Groups 3 and 4 (25 and 50 mg/kg)
Description: (§7) Fed glucose measurements were made at the beginning, midpoint and endpoint of the study. A fasting GTT measurement was done at the midpoint and endpoint of the study. Fed plasma samples were tested for insulin, total cholesterol, free fatty acids, triglycerides, and liver enzymes. At the end of the study, animals were sacrificed and tissue samples (liver, white adipose tissue, brown adipose tissue) were taken for histological evaluation and GPR23 mRNA quantitation.
(§8) Gene profiling experiments were performed to provide additional insight into the mechanism of action associated with GPR23.

[3] = tested on: GPR23; test: GPR23-specific antisense oligos evaluated for activity in bEND cells; format: cell-based; conditions: bEND (murine brain endothelial) cells
Description: as §1, with “below: […]” for “below:”

[4] = tested on: male C57 black 6 mice fed a high fat diet (diet induced obesity); test: GPR23 antisense study in diet induced obesity mice (body composition, serum parameters, liver); format: in vivo; conditions: for body weight: 50 mg/kg IP weekly for 7 weeks (Group 4) vs control animals
Description: as §1, §2, §3, §4, §5, §6, §7

[5] = tested on: hormone sensitive lipase; test: Gene profiling by real time PCR of adipose tissue: hormone sensitive lipase; format: in vivo, mice; conditions: Groups 3 and 4 (25 and 50 mg/kg)
Description: as §7, §8

[6] = tested on: PPAR-gamma; test: Gene profiling by real time PCR of adipose tissue: PPAR-gamma; format: in vivo, mice; conditions: Groups 3 and 4 (25 and 50 mg/kg)
Description: as §7, §8

[7] = 50 mg/kg IP weekly for 7 weeks (Group 4) vs control oligo (Group 2)
[8] = Groups 3 and 4 (25 and 50 mg/kg), not statistically significant, data not shown

Question: “CTCAGTATCATTAGCTTCAA (listed as DNA, chemistry not given here; listed as Mus musculus) [GPR23 antisense oligo]” was tested. Which “reduction of GPR23 mRNA levels relative to control oligo treated animals” value [1] did it give?
Answer: The value was about 70%.

Question: What about the “fatty acid synthase mRNA levels” value [2] of the same sequence?
Answer: Its value is “significantly reduced in a dose-dependent manner”.

Question: And the “expression of GPR23 in cultured cells” value [3]?
Answer: Its value is “markedly reduced”.

Question: What about the body weight [4] of the same sequence?
Answer: Its body weight is “weighed slightly less than control animals”.

Question: What about the body weight ([4]; listed as antisense oligo) of the same sequence?
Answer: The body weight was “weighed less than control animals”.

Question: What about the fat mass [4, 7] of the same sequence?
Answer: Its fat mass is “statistically significant decrease”.

Question: And the lean mass [4, 7]?
Answer: The lean mass was “statistically significant increase”.

Question: What about the liver fat scores ([4]; Groups 3 and 4 (25 and 50 mg/kg)) of the same sequence?
Answer: The liver fat scores was “lower”.

Question: What about the “liver enzymes (a parameter of toxicity)” value ([4]; Groups 3 and 4 (25 and 50 mg/kg) compared to control groups (Groups 1 and 2)) of the same sequence?
Answer: Its value is “not significantly different”.

Question: What about the “free fatty acid levels” value [4, 8] of the same sequence?
Answer: The value was “lower”.

Question: And the triglyceride levels [4, 8]?
Answer: Its triglyceride levels is “lower”.

Question: And the serum cholesterol levels ([4]; both 25 mg/kg and 50 mg/kg doses (Groups 3 and 4), change from baseline at week 7, relative to controls)?
Answer: The serum cholesterol levels was “lowered relative to controls”.

Question: What about the glucose tolerance tests ([4]; fasting GTT, antisense oligo treatment) of the same sequence?
Answer: Its glucose tolerance tests is “not affected”.

Question: And the “levels of hormone sensitive lipase” value [5]?
Answer: Its value is “did not change significantly”.

Question: What about the “levels of PPAR-gamma” value [6] of the same sequence?
Answer: Its value is “did not change significantly”.
